{"source": "patent US20150343016A1", "about": "“CHEMICAL ENTITIES AND THERAPEUTIC USES THEREOF” (The Regents of the University of Colorado, a body corporate, priority 2010, published 2015)", "key": {"Det562 cells": {"tested_on": "Det562 cells", "experiment": "MTT assay, Bouvardin with ionizing radiation, Det562 (same-day treatment)", "assay_type": "cell-based, human", "method": "“Combination Index” computation. Combination Indices were calculated using CalcuSyn software (Biosoft), which uses the method of Chou and Talalay. This method first computes drug-induced effect using the Hill Equation: where E is the measured effect; C is the drug concentration; Emax is the full range of drug effect, usually at or near 100%; IC50 is the drug concentration producing the median effect of 50%; and n is the curve shape parameter describing the steepness of the concentration-effect relationship. The Chou and Talalay method then linearizes the Hill Equation by logarithmic transformation as: where fu is the fraction of cells left unaffected after drug exposure, fa is the fraction of cells affected by the exposure, C is the drug concentration used, Cm is the concentration to achieve the median effect, and n is the curve shape parameter. Cm and n are equivalent to IC50 and n, respectively, in the Hill Equation. The values of n (obtained from the slope), nlog(Cm) (obtained from the absolute value of the intercept), and, therefore, Cm are obtained by plotting log(fu−1−1) versus log(C). These numbers are then used to compute the Combination Index (CI) according to the formula: CI=(D)1/(Dx)1+(D)2/(Dx)2 (26). (Dx)1 and (Dx)2 are the doses required to achieve a given effect level for each treatment, i.e. a specified value of Fraction Affected or Fa. (D)1 and (D)2 are the doses of each treatment in a given combination which gives the same Fa.\nFor FIG. 19 MTT assays were used to determine the effect of Bouvardin (concentrations in uM) in combination with ionizing radiation (in Gy). The data from same-day treatment of IR and Bouvardin are shown, for comparison with taxol-Bouvardin combination that were also applied on the same day. In general, CI values were lower for FaDu cells than for Det562 cells in two separate experiments (only one set is shown). On Det562 cells, CI values were about 1 for most combinations. CI value for Det562 cells at 0.001 uM/1Gy and at >0.06 uM are not included in the graph because the values are >10 and would have made smaller values harder to see. On FaDu cells, CI values were below 1 at concentrations of 0.03 or lower, were about 1 for 0.06 uM drug, and were over 1 at higher concentrations.\nThe growth inhibitory effects of Bouvardin with ionizing radiation (IR) were evaluated using a modified tetrazolium salt (MTT) assay. In the MTT assay, 1,000 to 2,000 viable cells were plated in 100 uL of growth medium in 96-well plates (Corning, Ithaca, N.Y.). Following an overnight incubation, drug was added in varying concentrations and the plates were irradiated on the same day (co-treatment) or 24 hr later (pre-treatment) and incubated for 6 to 7 days. The tetrazolium salt was added at a concentration of 0.4 mg/mL to each well following the 6- to 7-day treatment. The plates were incubated with the salt for 4 hours at 37° C. At 4 hours, the medium was aspirated off, leaving the dark blue formazan product at the bottom of the wells. The reduced MTT product was solubilized by adding […] of 0.2 N HCl in 75% isopropanol, 23% MilliQ water to each well. Thorough mixing was done using a Titertek multichannel pipetman. The absorbency of each well was measured using an automated plate reader (Molecular Devices, Sunnyvale, Calif.). All experiments were done in triplicate."}, "[1]": {"biological_target": "in vitro translation in rabbit reticulocytes", "experiment": "In vitro translation assay in rabbit reticulocytes with Luciferase mRNA", "assay_type": "biochemical", "method": "In vitro translation assays were performed in rabbit reticulocytes (Promega) according to manufacturer's instruction, in the presence or absence of Bouvardin at final concentrations shown. Luciferase mRNA provided in the kit was used at a final concentration of 1 ug/ul. The reactions samples were incubated for 15 minutes at 37° C. and quenched by dilution with water. Luciferase activity was measured using a plate reader Multi-Mode Microplate Reader (Synergy 2 by BioTek) immediately after luciferase substrate addition. Samples were also subjected to electrophoresis on SDS-polyacrylamide gels and immunoblotted with goat polyclonal α-luciferase primary antibodies (Promega) and donkey anti-goat IgG, HRP secondary antibodies (Promega). The blots were visualized using chemiluminescence detection (Pierce). (A) Luciferase activity at different concentrations of Bouvardin. Error bars show SEM from triplicate samples. (B) Luciferase protein levels in corresponding samples."}}, "note": "Where two headings read alike, the source gives them in different places.", "data": [{"smiles": "COc1ccc(C[C@H]2C(=O)N[C@H](C)C(=O)N(C)[C@@H]3C(=O)N(C)[C@@H](Cc4ccc(O)c(c4)Oc4ccc(cc4)[C@H]3O)C(=O)N[C@@H](C)C(=O)N[C@H](C)C(=O)N2C)cc1", "note": "(stereo in doubt) [Bouvardin, bouvardin]", "values": [{"measurement": "interaction of Bouvardin with IR", "setting": "Det562 cells", "result": "a wide range of effects, synergistic to antagonistic"}, {"measurement": "CI value, Bouvardin with IR", "setting": "Det562 cells; 0.001 uM/1Gy", "result": "> 10"}, {"measurement": "CI value, Bouvardin with IR", "setting": "Det562 cells; at >0.06 uM", "result": "> 10"}, {"measurement": "interaction of Bouvardin with IR", "setting": "Det562 cells; listed as bouvardin", "result": "synergizes with ionizing radiation"}, {"measurement": "CI values, Bouvardin with IR", "setting": "Det562 cells; most combinations", "result": "about 1"}, {"measurement": "IC50 in in vitro translation reactions", "setting": "[1]", "result": "nM range"}, {"measurement": "effect on in vitro translation (luciferase activity and protein)", "setting": "[1]; 15 minutes at 37° C.", "result": "inhibits translation"}]}]}
